Experimental data reported in US20260097083A1, “METHOD FOR PRODUCING PANCREATIC ENDODERM CELLS” (Kyoto University, priority 2022, published 2026).

Columns and labels:
[1] = test system: PDX1+/NKX6.1+ pancreatic endoderm cells; assay: Expansion culture with Y-27632 at different concentrations; assay type: cell-based; conditions: 40 days, FIG. 5-A
Procedure: FIG. 5-A Changes in the number of PDX1^+/NKX6.1^+ pancreatic endoderm cells and the total number of cells during expansion culture with Y-27632 (0, 10, or 50 μM). (1) After the cells produced in clause 1 above were washed with PBS(−), 1 ml of 0.25% trypsin-EDTA was added thereto, and the cells were incubated at 37° C. and 5% CO2 for 5 minutes. (2) The adherent cells were detached through pipetting and were added to a 50-ml centrifuge tube. (3) 4 ml of DMEM (Dulbecco's Modified Eagle Medium)/10% FBS/PS (penicillin-streptomycin) was added to the centrifuge tube. (4) The resulting mixture was centrifuged at 400 G for 3 minutes, and the supernatant was removed. (5) The cells were suspended in improved MEM (containing 10 μM Y-27632, 0.5×B-27 Supplement, and 100 U/ml penicillin/streptomycin), and were counted. (6) When the cells were seeded on a 6-well plate, an amount of the suspension necessary to provide 1×10^6 cells/well was collected and was centrifuged at 400 G for 3 minutes (2×10^5 cells/well for a 24-well plate). (7) After the supernatant was removed, the cells were re-suspended in improved MEM (containing 100 ng/ml KGF, 50 ng/ml EGF, 10 mM nicotinamide, 50 μM Y-27632, 0.5×B-27 Supplement, and 100 U/ml penicillin/streptomycin), the suspension was adjusted to correspond to 2 ml/well, and then the cells were seeded. A 6-well plate to which the cells were to be seeded had been coated in advance by adding a solution formed by mixing 10 μl of iMatrix-511 silk and 1.5 ml of PBS(−) to each well 1 hour before seeding, and incubating the plate at 37° C. and 5% CO2 for 1 hour. (8) On the next day (Day 1), the cells were washed with improved MEM, and then the culture medium was changed to improved MEM (5 ml/well) containing 100 ng/ml KGF, 50 ng/ml EGF, 10 mM nicotinamide, 50 μM Y-27632, 0.5×B-27 Supplement, and 100 U/ml penicillin/streptomycin. (9) The cells were washed with improved MEM 3 days after that (on Day 4), and then the culture medium was changed to the same culture medium as that in the step (7) (5 ml/well). (10) The steps (1) to (7) above were conducted 3 days after that (on Day 7), and the next passage (expansion culture) was conducted. Expansion culture and passage culture were repeated by repeating the steps (8), (9), and (10) from the next day. One round of the passage (expansion culture) corresponded to 7 days (operations above). FIGS. 4-A show the outline of this procedure. […]

[2] = test system: pancreatic endoderm cells; assay: α-SMA immunostaining at the third passage of expansion culture; assay type: cell-based; conditions: Y-27632 50 μM vs non-administration, FIG. 6
Procedure: FIG. 6 Images of pancreatic endoderm cells immunostained against α-SMA at the third passage of the pancreatic endoderm cells with or without the administration of Y-27632 (50 μM). The cells after the expansion culture were washed with PBS(−) twice, and were then fixed using 4% PFA at 4° C. for 20 minutes. The cells were blocked with a blocking solution (PBS(−) containing 5% donkey serum and 0.4% Triton X-100) at room temperature for 30 minutes. The cells were incubated in a primary antibody solution diluted with the blocking solution at 4° C. overnight. After the primary antibody solution was washed off, the cells were incubated at room temperature for 1 hour in a fluorescent secondary antibody solution diluted with the blocking solution. Fluorescently immunostained images were acquired using BZ-710 or BZ-800 (Keyence). A mechanism by which the expansion culture of pancreatic endoderm cells with Y-27632 was enabled was examined. It was shown that, at the third passage of the expansion culture, the number of α-SMA-positive cells increased in the Y-27632 non-administration group compared with the group to which Y-27632 at a concentration of 50 μM was administered (FIG. 6). That is to say, it was observed that fibrosis or epithelial-mesenchymal transition was suppressed by administering Y-27632 to the cells.

## C[C@@H](N)[C@H]1CC[C@H](C(=O)Nc2ccncc2)CC1 [Y-27632]
[1]; Y-27632 10 μM
  number of PDX1+/NKX6.1+ pancreatic endoderm cells increased by a factor of: about 1×10^4
  total number of cells increased by a factor of: about 1×10^4
[1]; Y-27632 50 μM
  number of PDX1+/NKX6.1+ pancreatic endoderm cells increased by a factor of: about 1×10^4
  total number of cells increased by a factor of: about 1×10^4
[2]
  fibrosis or epithelial-mesenchymal transition (α-SMA-positive cells): suppressed
